Experimental data as given in BigSolDB 2.1.

O=[N+]([O-])/N=C1\NCCN1Cc1ccc(Cl)nc1
solubility (mole fraction)
Settings	293.15 K	298.15 K	303.15 K	308.15 K	313.15 K	318.15 K	323.15 K	328.15 K	333.15 K
in ethanol	0.0006	0.0008	0.0009	0.0012	0.0015	0.0019	0.0025	0.003	0.0036
in ethyl acetate	0.0027	0.0029	0.0034	0.0039	0.0044	0.0053	0.0061	0.0071	0.0084
in methanol	0.0012	0.0015	0.0018	0.0023	0.0027	0.0036	0.0044	0.0054	0.0067
in methyl acetate	0.0037	0.0042	0.0048	0.0057	0.0067	0.0078	0.0092	0.0107	–
in n-butanol	0.0004	0.0005	0.0006	0.0008	0.001	0.0013	0.0017	0.0021	0.0026
in n-butyl acetate	0.0015	0.0019	0.0021	0.0027	0.0032	0.0035	0.0037	0.0041	0.0048
in n-propanol	0.0005	0.0006	0.0008	0.0011	0.0013	0.0017	0.0022	0.0028	0.0034
